{
  "source": "patent US7838508B2",
  "about": "“4′-thio-L-xyloy furanosyl nucleosides, precursors thereof, preparation and use thereof” (priority 2000, dated 2010)",
  "key": {"SK-MEL-28 (melanoma)": {"test_system": "SK-MEL-28 (melanoma)", "experiment": "Cell culture cytotoxicity, SK-MEL-28 (melanoma)", "type": "cell-based, human", "protocol": "(§1) The cell culture cytotoxicity of compounds of the present invention was determined against several different human cancel cell lines (see Table 1 below) and for antiviral activity (see Table 2 below)."}, "CAKI-1 (renal)": {"test_system": "CAKI-1 (renal)", "experiment": "Cell culture cytotoxicity, CAKI-1 (renal)", "type": "cell-based, human", "protocol": "as §1"}, "CCRF-CEM (leukemia)": {"test_system": "CCRF-CEM (leukemia)", "experiment": "Cell culture cytotoxicity, CCRF-CEM (leukemia)", "type": "cell-based, human", "conditions": "read-out: Cytotoxicity IC50, CCRF-CEM (leukemia)", "protocol": "as §1"}, "SNB-7 (CNS)": {"test_system": "SNB-7 (CNS)", "experiment": "Cell culture cytotoxicity, SNB-7 (CNS)", "type": "cell-based, human", "protocol": "as §1"}, "DLD-1 (colon)": {"test_system": "DLD-1 (colon)", "experiment": "Cell culture cytotoxicity, DLD-1 (colon)", "type": "cell-based, human", "protocol": "as §1"}, "NCI-H23 (lung)": {"test_system": "NCI-H23 (lung)", "experiment": "Cell culture cytotoxicity, NCI-H23 (lung)", "type": "cell-based, human", "protocol": "as §1"}, "[1]": {"experiment": "Toxicity (cell viability) in antiviral (CMV) test", "type": "cell-based", "conditions": "Antiviral (CMV) data; read-out: TC50: Toxic Concentration at 50% cell viability", "protocol": "as §1"}, "CMV": {"test_system": "CMV", "experiment": "Antiviral (CMV) activity", "type": "cell-based", "conditions": "for pIC50: Human betaherpesvirus 5, Antiviral (CMV) data, read-out: IC50: 50% Inhibitory Concentration of CMV; for TI: Therapeutic Index (TC50/IC50): TC50/IC50, CMV", "protocol": "as §1"}, "[2]": {"conditions": "SK-MEL-28 human melanoma cell line, read-out: Cytotoxicity IC50, SK-MEL-28 (melanoma)"}, "[3]": {"conditions": "CAKI-1 human renal cancer cell line, read-out: Cytotoxicity IC50, CAKI-1 (renal)"}, "[4]": {"conditions": "CCRF-CEM human leukemia cell line"}, "[5]": {"conditions": "SNB-7 human CNS cancer cell line, read-out: Cytotoxicity IC50, SNB-7 (CNS)"}, "[6]": {"conditions": "DLD-1 human colon cancer cell line, read-out: Cytotoxicity IC50, DLD-1 (colon)"}, "[7]": {"conditions": "NCI-H23 human lung cancer cell line, read-out: Cytotoxicity IC50, NCI-H23 (lung)"}},
  "note": "pIC50: −log10 of the molar value. Like-named read-outs stand apart in the source and are kept apart here.",
  "data": [
    {"compound": "Nc1nc2c(ncn2[C@H]2S[C@@H](CO)[C@@H](O)[C@@H]2O)c(=O)[nH]1", "note": "[Compound 13, 9-(4-Thio-β-L-xylofuranosyl)guanine]", "values": [
      {"measurement": "pIC50", "setting": "SK-MEL-28 (melanoma); [2]", "result": "< 4.00"},
      {"measurement": "pIC50", "setting": "CAKI-1 (renal); [3]", "result": "< 4.00"},
      {"measurement": "pIC50", "setting": "CCRF-CEM (leukemia); [4]", "result": "< 4.00"},
      {"measurement": "pIC50", "setting": "SNB-7 (CNS); [5]", "result": "< 4.00"},
      {"measurement": "pIC50", "setting": "DLD-1 (colon); [6]", "result": "< 4.00"},
      {"measurement": "pIC50", "setting": "NCI-H23 (lung); [7]", "result": "< 4.00"}
    ]},
    {"compound": "Nc1nc(O)c2ncn(COC(CO)CO)c2n1", "note": "[Ganciclovir, reference compound]", "values": [
      {"measurement": "CC50", "setting": "[1]", "result": "> 10", "unit": "µM"},
      {"measurement": "pIC50", "setting": "CMV", "result": 5.07},
      {"measurement": "TI: Therapeutic Index (TC50/IC50)", "setting": "CMV", "result": ">11.6"}
    ]},
    {"compound": "1-(4′-thio-α,β-L-Xylofuranosyl)thymine [Compound 17αβ]", "values": [
      {"measurement": "pIC50", "setting": "SK-MEL-28 (melanoma); [2]", "result": "< 4.00"},
      {"measurement": "pIC50", "setting": "CAKI-1 (renal); [3]", "result": "< 4.00"},
      {"measurement": "pIC50", "setting": "CCRF-CEM (leukemia); [4]", "result": "< 4.00"},
      {"measurement": "pIC50", "setting": "SNB-7 (CNS); [5]", "result": "< 4.00"},
      {"measurement": "pIC50", "setting": "DLD-1 (colon); [6]", "result": "< 4.00"},
      {"measurement": "pIC50", "setting": "NCI-H23 (lung); [7]", "result": "< 4.00"}
    ]},
    {"compound": "Nc1nc(N)c2ncn([C@H]3S[C@@H](CO)[C@@H](O)[C@@H]3O)c2n1", "note": "[Compound 12β, 9-(4-Thio-β-L-Xylofuranosyl)-9H-purine-2,6-diamine]", "values": [
      {"measurement": "pIC50", "setting": "SK-MEL-28 (melanoma); [2]", "result": "< 4.00"},
      {"measurement": "pIC50", "setting": "CAKI-1 (renal); [3]", "result": "< 4.00"},
      {"measurement": "pIC50", "setting": "CCRF-CEM (leukemia); [4]", "result": "< 4.00"},
      {"measurement": "pIC50", "setting": "SNB-7 (CNS); [5]", "result": "< 4.00"},
      {"measurement": "pIC50", "setting": "DLD-1 (colon); [6]", "result": "< 4.00"},
      {"measurement": "pIC50", "setting": "NCI-H23 (lung); [7]", "result": "< 4.00"}
    ]},
    {"compound": "O=c1ccn(C2S[C@@H](CO)[C@@H](O)[C@@H]2O)c(=O)[nH]1", "note": "(stereo partly drawn) [Compound 19αβ, 1-(4-thioα,β-L-Xylofuranosyl)uracil]", "values": [
      {"measurement": "pIC50", "setting": "SK-MEL-28 (melanoma); Homo sapiens, SK-MEL-28, read-out: Cytotoxicity IC50, SK-MEL-28 (melanoma)", "result": "< 4.00"},
      {"measurement": "pIC50", "setting": "CAKI-1 (renal); Homo sapiens, CAKI-1, read-out: Cytotoxicity IC50, CAKI-1 (renal)", "result": "< 4.00"},
      {"measurement": "pIC50", "setting": "CCRF-CEM (leukemia); Homo sapiens, CCRF-CEM", "result": "< 4.00"},
      {"measurement": "pIC50", "setting": "SNB-7 (CNS); Homo sapiens, SNB-7, read-out: Cytotoxicity IC50, SNB-7 (CNS)", "result": "< 4.00"},
      {"measurement": "pIC50", "setting": "DLD-1 (colon); Homo sapiens, DLD-1, read-out: Cytotoxicity IC50, DLD-1 (colon)", "result": "< 4.00"},
      {"measurement": "pIC50", "setting": "NCI-H23 (lung); Homo sapiens, NCI-H23, read-out: Cytotoxicity IC50, NCI-H23 (lung)", "result": "< 4.00"}
    ]},
    {"compound": "Nc1nc(N)c2ncn([C@@H]3S[C@@H](CO)[C@@H](O)[C@@H]3O)c2n1", "note": "[Compound 12α, 9-(4-Thio-α-L-Xylofuranosyl)-9H-purine-2,6-diamine]", "values": [
      {"measurement": "pIC50", "setting": "SK-MEL-28 (melanoma); [2]", "result": "< 4.00"},
      {"measurement": "pIC50", "setting": "CAKI-1 (renal); [3]", "result": "< 4.00"},
      {"measurement": "pIC50", "setting": "CCRF-CEM (leukemia); [4]", "result": "< 4.00"},
      {"measurement": "pIC50", "setting": "SNB-7 (CNS); [5]", "result": "< 4.00"},
      {"measurement": "CC50", "setting": "[1]", "result": "> 10", "unit": "µM"},
      {"measurement": "pIC50", "setting": "CMV", "result": 7.29},
      {"measurement": "TI: Therapeutic Index (TC50/IC50)", "setting": "CMV", "result": ">196.1"},
      {"measurement": "pIC50", "setting": "DLD-1 (colon); [6]", "result": "< 4.00"},
      {"measurement": "pIC50", "setting": "NCI-H23 (lung); [7]", "result": "< 4.00"}
    ]},
    {"compound": "Nc1ccn([C@H]2S[C@@H](CO)[C@@H](O)[C@@H]2O)c(=O)n1", "note": "[Compound 15β, 1-(4-thio-β-L-Xylofuranosyl)cytosine]", "values": [
      {"measurement": "pIC50", "setting": "SK-MEL-28 (melanoma); [2]", "result": "< 4.00"},
      {"measurement": "pIC50", "setting": "CAKI-1 (renal); [3]", "result": "< 4.00"},
      {"measurement": "pIC50", "setting": "CCRF-CEM (leukemia); [4]", "result": 4.96},
      {"measurement": "pIC50", "setting": "SNB-7 (CNS); [5]", "result": 4.05},
      {"measurement": "CC50", "setting": "[1]", "result": "> 10", "unit": "µM"},
      {"measurement": "pIC50", "setting": "CMV", "result": 7.66},
      {"measurement": "TI: Therapeutic Index (TC50/IC50)", "setting": "CMV", "result": ">454.5"},
      {"measurement": "pIC50", "setting": "DLD-1 (colon); [6]", "result": "< 4.00"},
      {"measurement": "pIC50", "setting": "NCI-H23 (lung); [7]", "result": "< 4.00"}
    ]},
    {"compound": "Nc1nc(Cl)nc2c1ncn2[C@H]1S[C@@H](CO)[C@@H](O)[C@@H]1O", "note": "[Compound 9β, 2-Chloro-9-(4-thio-β-L-xylofuranosyl)adenine]", "values": [
      {"measurement": "pIC50", "setting": "SK-MEL-28 (melanoma); [2]", "result": "< 4.00"},
      {"measurement": "pIC50", "setting": "CAKI-1 (renal); [3]", "result": "< 4.00"},
      {"measurement": "pIC50", "setting": "CCRF-CEM (leukemia); [4]", "result": "< 4.00"},
      {"measurement": "pIC50", "setting": "SNB-7 (CNS); [5]", "result": "< 4.00"},
      {"measurement": "pIC50", "setting": "DLD-1 (colon); [6]", "result": "< 4.00"},
      {"measurement": "pIC50", "setting": "NCI-H23 (lung); [7]", "result": "< 4.00"}
    ]},
    {"compound": "Nc1ccn([C@@H]2S[C@@H](CO)[C@@H](O)[C@@H]2O)c(=O)n1", "note": "[Compound 15α, 1-(4-thio-α-L-Xylofuranosyl)cytosine]", "values": [
      {"measurement": "pIC50", "setting": "SK-MEL-28 (melanoma); [2]", "result": "< 4.00"},
      {"measurement": "pIC50", "setting": "CAKI-1 (renal); [3]", "result": "< 4.00"},
      {"measurement": "pIC50", "setting": "CCRF-CEM (leukemia); [4]", "result": 5.10},
      {"measurement": "pIC50", "setting": "SNB-7 (CNS); [5]", "result": "< 4.00"},
      {"measurement": "CC50", "setting": "[1]", "result": "> 10", "unit": "µM"},
      {"measurement": "pIC50", "setting": "CMV", "result": 7.59},
      {"measurement": "TI: Therapeutic Index (TC50/IC50)", "setting": "CMV", "result": ">384.6"},
      {"measurement": "pIC50", "setting": "DLD-1 (colon); [6]", "result": "< 4.00"},
      {"measurement": "pIC50", "setting": "NCI-H23 (lung); [7]", "result": "< 4.00"}
    ]},
    {"compound": "Nc1nc(Cl)nc2c1ncn2[C@@H]1S[C@@H](CO)[C@@H](O)[C@@H]1O", "note": "[Compound 9α, 2-Chloro-9-(4-thio-α-L-xylofuranosyl)adenine]", "values": [
      {"measurement": "pIC50", "setting": "SK-MEL-28 (melanoma); [2]", "result": "< 4.00"},
      {"measurement": "pIC50", "setting": "CAKI-1 (renal); [3]", "result": "< 4.00"},
      {"measurement": "pIC50", "setting": "CCRF-CEM (leukemia); [4]", "result": "< 4.00"},
      {"measurement": "pIC50", "setting": "SNB-7 (CNS); [5]", "result": "< 4.00"},
      {"measurement": "pIC50", "setting": "DLD-1 (colon); [6]", "result": "< 4.00"},
      {"measurement": "pIC50", "setting": "NCI-H23 (lung); [7]", "result": "< 4.00"}
    ]}
  ]
}
